{"source": "patent US20100160266A1", "about": "“ORGANIC COMPOUNDS” (NABRIVA TH[…], priority 2005, published 2010)", "tested_on": "anaerobic bacteria", "assay": "in vitro acne assays: MIC by agar dilution technique on Wilkins-Chalgren Agar (NCCLS guidelines)", "format": "cell-based", "details": "compared with the same pleuromutilin in the form of a hydrochloride", "method": "E.g. in commercially available in vitro acne assays (the determination of the minimal inhibitory concentration (MIC) is performed according to the approved NCCLS guidelines^1) by agar dilution technique on Wilkins-Chalgren Agar—1) National committee for clinical laboratory standards. Methods for Antimicrobial susceptibility testing of anaerobic bacteria. 1993.", "data": [{"smiles": "C=CC1(C)CC(OC(=O)CSC2CCCN(C(=O)C(N)C(C)C)C2)C2(C)C(C)CCC3(CCC(=O)C32)C(C)C1O", "note": "[Example 1, 14-O—[(N—((R)-Valyl)-piperidine-3(S)-yl)-sulfanylacetyl)-mutilin]", "values": [{"measurement": "activity in in vitro acne assays (minimal inhibitory concentration, MIC)", "result": "remarkably better activity"}]}]}
